{"source": "paper PMC9782626", "about": "“Copper(II) Complexes of 5–Fluoro–Salicylaldehyde: Synthesis, Characterization, Antioxidant Properties, Interaction with DNA and Serum Albumins” (Molecules, 2022)", "key": {"[1]": {"parameters": "method as in PMID 35890184", "conditions": "cited from earlier work"}, "[2]": {"target": "T1, bovine serum albumin (BSA) (Bos taurus, UniProt P02769)", "T1 construct": "purchased Sigma–Aldrich Co", "T1 sequence (P02769 25-607)": "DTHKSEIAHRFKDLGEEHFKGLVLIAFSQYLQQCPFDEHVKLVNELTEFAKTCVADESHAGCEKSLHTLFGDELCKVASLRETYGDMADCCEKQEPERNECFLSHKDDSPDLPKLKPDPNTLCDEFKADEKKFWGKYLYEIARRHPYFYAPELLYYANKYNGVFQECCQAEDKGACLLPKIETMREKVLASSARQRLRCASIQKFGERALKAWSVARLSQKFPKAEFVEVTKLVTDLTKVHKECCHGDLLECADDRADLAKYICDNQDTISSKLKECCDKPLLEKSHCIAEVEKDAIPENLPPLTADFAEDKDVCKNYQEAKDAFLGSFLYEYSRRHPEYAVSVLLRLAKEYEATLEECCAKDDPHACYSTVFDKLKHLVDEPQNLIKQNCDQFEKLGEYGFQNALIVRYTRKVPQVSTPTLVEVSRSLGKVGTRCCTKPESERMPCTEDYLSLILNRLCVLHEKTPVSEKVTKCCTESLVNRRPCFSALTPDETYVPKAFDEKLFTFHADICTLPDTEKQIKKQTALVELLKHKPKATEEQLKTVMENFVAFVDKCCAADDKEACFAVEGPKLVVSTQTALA", "parameters": "method as in PMID 35890184", "conditions": "cited from earlier work"}, "[3]": {"target": "T2, human serum albumin (HSA) (Homo sapiens, UniProt P02768)", "T2 construct": "purchased Sigma–Aldrich Co", "T2 sequence (P02768 25-609)": "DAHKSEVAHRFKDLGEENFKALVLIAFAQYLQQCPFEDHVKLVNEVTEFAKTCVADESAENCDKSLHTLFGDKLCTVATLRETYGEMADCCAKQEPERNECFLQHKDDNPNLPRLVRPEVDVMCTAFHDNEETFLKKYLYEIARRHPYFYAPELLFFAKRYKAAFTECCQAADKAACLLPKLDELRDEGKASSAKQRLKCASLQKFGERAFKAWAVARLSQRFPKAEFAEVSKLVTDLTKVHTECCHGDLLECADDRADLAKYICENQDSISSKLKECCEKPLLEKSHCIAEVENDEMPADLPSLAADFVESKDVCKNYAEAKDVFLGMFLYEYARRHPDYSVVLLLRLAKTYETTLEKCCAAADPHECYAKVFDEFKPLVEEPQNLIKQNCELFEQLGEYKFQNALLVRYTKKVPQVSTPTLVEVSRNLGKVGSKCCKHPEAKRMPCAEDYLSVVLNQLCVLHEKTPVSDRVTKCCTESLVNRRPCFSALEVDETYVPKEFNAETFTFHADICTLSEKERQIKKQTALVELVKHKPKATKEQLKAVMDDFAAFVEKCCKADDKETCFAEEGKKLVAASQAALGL", "parameters": "method as in PMID 35890184", "conditions": "cited from earlier work"}, "[4]": {"parameters": "method as in PMID 35890184", "conditions": "cited from earlier work", "remark": "listed apart in the source"}, "[5]": {"test_system": "EB–DNA conjugate (CT DNA)", "parameters": "method as in PMID 35890184", "conditions": "cited from earlier work"}, "[6]": {"parameters": "method as in PMID 35890184", "conditions": "cited from earlier work", "remark": "listed apart in the source"}, "CT DNA": {"test_system": "CT DNA", "conditions": "cited from earlier work"}, "[7]": {"experiment": "DPPH radical scavenging assay", "format": "biochemical", "conditions": "compound 0.1 mM", "source_text": "(§1) For the above reasons, the antioxidant ability of 5–F–saloH and Cu(II) complexes 1–5 has been evaluated via their scavenging activity towards DPPH and ABTS radicals, as well as the ability to reduce H2O2, and in comparison with that of well-known antioxidant agents such as nordihydroguaiaretic acid (NDGA), butylated hydroxytoluene (ΒHΤ), 6–hydroxy–2,5,7,8–tetramethylchromane–2–carboxylic acid (trolox) and L–ascorbic acid (these are the most commonly used standard reference antioxidant agents). The DPPH-radical assay was developed in the 1950s and this method has been used to assess the antioxidant capacity of several metal complexes. The DPPH–scavenging ability of compounds has often been related to their ability to prevent ageing, cancer and inflammation. The ability of a compound to scavenge the cationic ABTS radicals (ABTS^+●) has been considered a measure of its total antioxidant activity. Further, hydrogen peroxide has the ability to penetrate biological membranes and, although it is not very reactive itself, it can sometimes be toxic since it may give rise to hydroxyl radicals in cells. For this reason, the removal of H2O2 is very important for the protection of living systems. When a compound is incubated with H2O2 using a peroxidase assay system, the loss of H2O2 can be measured.\n(§2) S1 Antioxidant activity assay\n(§3) The antioxidant activity of the compounds was evaluated via their ability to scavenge in vitro free radicals such as DPPH and ABTS and to reduce H 2O2. All the experiments were carried out at least in triplicate and the standard deviation of absorbance was less than 10% of the mean.\nS1.1 Determination of the reducing activity of the radical DPPH\nTo an ethanolic solution of DPPH (0.1 mM) an equal volume solution of the compounds (0.1 mM) in ethanol was added. Absolute ethanol was also used as control solution. The absorbance at 517 nm was recorded at room temperature after 30 and 60 min, in order to examine the possible existence of a potential time-dependence of the DPPH radical scavenging act iv ity [S 1]. The DPPH -scavenging activity of the compounds was expressed as the percentage reduction of the absorbance values of the initial DPPH solution ( DPPH%). N DGA and BHT were used as reference comp ounds. […]"}, "[8]": {"experiment": "Reduction of hydrogen peroxide", "format": "biochemical", "conditions": "compound 0.1 mM, 10 min, pH 7.4", "source_text": "as §1, §2, §3\nS1.1 Determination of the reducing activity of the radical DPPH […]\nS1.3 Reduction of hydrogen peroxide\nThe ability of the com pounds to reduce hydrogen peroxide (H2O2) was est imated according to the method descr ibed in the literature [S2]. The reaction mixture contained 20 μL of each of the tested compounds (0.1 mM) and 5 μL H2O 2 solution (40 mM) in phosphate buffer (50 mM, pH = 7.4). The absorbance was measure d at 230 nm after 10 min.\nThe antioxidant activity (reduction of hydrogen peroxide) of the compounds wa s […]\nexpressed as the percentage decrease of t he init ial H 2O2 solution (H 2O2%). L-ascor b ic ac id (or vitamin C) was use d as a standard. […]\n[DNA] = [DNA] + 1 (eq. S1) […]\nwhere [DNA] is the concentration of DNA in base pa irs, εA = Aobsd/[compound ], εf = the extinction coefficient for the free compound and ε b = the extinction coefficient for the compound in the fully bound form. Kb is given by the ratio of slope to the y intercept in plots [DNA]/(εA-εf) versus[DNA].\nS2.2CT DNA -binding studie s by viscosity measurements\nThe interaction of compounds with DNA has been evaluated via the study of the CT DNA viscosity ([DNA] = 0.1 mΜ) in a buffer solution (150 mM NaCl and 15 mM trisodium citrate at pH 7.0) in the presence of increasing amount of complexes (up to the value of r = 0.36). The obtained data are presented as (η/η 0)1/3 versus r, where η is the viscosity of DNA in the presence of the compound, and η0 is the viscosity of DNA alone in buffer solution.\nS2.3 EB -displa cement studie s\nThe competition of the complexes with EB was investigated by fluorescence emission spectroscopy in order to examine whether the compounds can displace EB from its DNA-EB conjugate. The CT DNA-EB complex was formed by pre-treating 20 μM EB and 26 μM CT DNA in buffer (150 mM NaCl and 15 mM trisodium citrate at pH = 7.0).\nThe possible displacement of EB by the compounds and su bseq uently t he ir intercalating effect was studied by the stepwise addition of a certain amount of the solution of each"}, "[9]": {"experiment": "ABTS radical cation scavenging assay", "format": "biochemical", "conditions": "compound 0.1 mM, 1 min", "source_text": "as §1, §2\nThe antioxidant activity of the compounds was evaluated via their ability to scavenge in vitro free radicals such as DPPH and ABTS and to reduce H 2O2. All the experiments were carried out at least in triplicate and the standard deviation of absorbance was less than 10% of the mean. […]\nS1.2 Assay of radical cation ABTS-scavengin g activity\nThe ABTS assay was performed to determine the activity of the compounds to scavenge the radical cation ABTS. Initially, a water solution of ABTS was prepared (2 mM). ABTS radical cation (ABTS+·) was produced by the reaction of ABTS stock solution with potassium persulfate (0.17 mM) and the mixture was stored in the dark at room temperature for 12-16 h before its use. The ABTS was oxidized incompletely because the stoichiometric reaction ratio of ABTS and potassium persulfate is 1:0.5. The absorbance became maximal and stable only after more than 6 h of reaction although the oxidation of the ABTS started immediately. The radical was stable in this form for more than 2 days when allowed to stand in the dark at room temperature. Afterwards, the ABTS+· solution was diluted in ethanol to an absorbance of 0.70 at 734 nm and 10 μL of diluted compounds or standards (0.1 mM) in DMSO were added. The absorbance was recorded out exactly 1 min after init ial m ix in g [S 1]. The ABTS radical scavenging act ivit y was expressed as the percentage inhibition of the absorbance of the initial ABTS solution (ABTS%). Trolox was used as an appropriate standard. […]"}}, "note": "Like-named read-outs stand apart in the source and are kept apart here."}
{"smiles": "O=Cc1cc(F)ccc1O", "note": "[5–F–saloH, 5–fluoro–salicylaldehyde]", "values": [{"measurement": "ABTS%, % ABTS–scavenging activity", "setting": "[1]", "result": "19.57 ± 0.58", "unit": "%"}, {"measurement": "BSA-binding constant K", "setting": "[2]", "result": "4.31 (±0.31) × 10^4 M^−1"}, {"measurement": "BSA-quenching constant kq", "setting": "[2]", "result": "1.98 (±0.08) × 10^12 M^−1 s^−1"}, {"measurement": "ΔΙ/Ιο, quenching of the BSA fluorescence", "setting": "[2]", "result": 25.7, "unit": "%"}, {"measurement": "% relative BSA fluorescence emission intensity I/Io remaining (% of initial)", "setting": "[2]; final value", "result": 74.3, "unit": "%"}, {"measurement": "HSA-binding constant K", "setting": "[3]", "result": "4.65 (±0.35) × 10^4 M^−1"}, {"measurement": "HSA-quenching constant kq", "setting": "[3]", "result": "1.96 (±0.07) × 10^12 M^−1 s^−1"}, {"measurement": "ΔΙ/Ιο, quenching of the HSA fluorescence", "setting": "[3]", "result": 25.7, "unit": "%"}, {"measurement": "% relative HSA fluorescence emission intensity I/Io remaining (% of initial)", "setting": "[3]; final value", "result": 74.3, "unit": "%"}, {"measurement": "H2O2%, H2O2–reducing activity", "setting": "[4]", "result": "71.84 ± 0.95", "unit": "%"}, {"measurement": "EB–DNA quenching constant kq", "setting": "[5]", "result": "1.73 (±0.05) × 10^12 M^−1 s^−1"}, {"measurement": "Stern–Volmer constant Ksv (EB–DNA)", "setting": "[5]", "result": "3.79 (±0.11) × 10^4 M^−1"}, {"measurement": "ΔΙ/Ιο, percentage of EB–DNA fluorescence quenching", "setting": "[5]", "result": 51.3, "unit": "%"}, {"measurement": "EB–DNA relative fluorescence emission intensity I/Io remaining (% of initial)", "setting": "[5]; λemission = 592 nm, final value", "result": 48.7, "unit": "%"}, {"measurement": "DPPH% (30 min), % DPPH–scavenging ability", "setting": "[6]; 30 min", "result": "3.96 ± 1.16", "unit": "%"}, {"measurement": "DPPH% (60 min), % DPPH–scavenging ability", "setting": "[6]; 60 min", "result": "5.56 ± 1.06", "unit": "%"}, {"measurement": "ΔA/Aο, percentage of hyper-/hypo-chromism upon addition of CT DNA", "setting": "CT DNA; band at 334 nm", "result": "−30", "unit": "%"}, {"measurement": "ΔA/Aο, percentage of hyper-/hypo-chromism upon addition of CT DNA", "setting": "CT DNA; band at 421 nm", "result": "> +50%"}]}
{"smiles": "Cc1cc(C(C)(C)C)c(O)c(C(C)(C)C)c1", "note": "[BHT, butylated hydroxytoluene, reference compound]", "values": [{"measurement": "DPPH% (30 min), % DPPH–scavenging ability", "setting": "[7]", "result": "61.30 ± 1.16", "unit": "%"}, {"measurement": "DPPH% (60 min), % DPPH–scavenging ability", "setting": "[7]", "result": "79.78 ± 1.12", "unit": "%"}]}
{"smiles": "O=C1O[C@H]([C@@H](O)CO)C(O)=C1O", "note": "[L–ascorbic acid, reference compound]", "values": [{"measurement": "H2O2%, H2O2–reducing activity", "setting": "[8]", "result": "60.80 ± 0.20", "unit": "%"}]}
{"smiles": "CC(Cc1ccc(O)c(O)c1)C(C)Cc1ccc(O)c(O)c1", "note": "(stereo not drawn) [NDGA, nordihydroguaiaretic acid, reference compound]", "values": [{"measurement": "DPPH% (30 min), % DPPH–scavenging ability", "setting": "[7]", "result": "87.08 ± 0.12", "unit": "%"}, {"measurement": "DPPH% (60 min), % DPPH–scavenging ability", "setting": "[7]", "result": "87.47 ± 0.12", "unit": "%"}]}
{"smiles": "Cc1c(C)c2c(c(C)c1O)CCC(C)(C(=O)O)O2", "note": "(stereo not drawn) [Trolox, 6–hydroxy–2,5,7,8–tetramethylchromane–2–carboxylic acid, reference compound]", "values": [{"measurement": "ABTS%, % ABTS–scavenging activity", "setting": "[9]", "result": "98.10 ± 0.48", "unit": "%"}]}
